Reference: patent publication US20040058952A1, “Urease inhibitors” (Otsuka Pharmaceutical Co., Ltd., priority 2000, published 2004)

What was measured:
[1] = biological target: Helicobacter pylori urease (Helicobacter pylori, UniProt P69996); assay: Urease activity inhibition test (13C-urea, 13C-NMR), Helicobacter pylori urease; assay type: biochemical
Description: (§1) Using ^13C-urea as a substrate, the amount of urea, which is eliminated due to the urease enzyme reaction, was measured with a lapse of time by means of ^13C-NMR. On the basis of an elimination rate (M/sec) of ^13C-urea in the absence of the urease inhibitor sample, the case where the elimination rate in the presence of the sample is reduced to half was calculated as IC50 of the sample.
(Preparation of sample) In a NMR tube having a diameter of 5 mm, Helicobacter pylori urease (manufactured by OTSUKA PHARMACEUTICAL CO., 1.6 units) dissolved in 500 μof a mixed solvent (pH 7) of 400 μl of 0.1M phosphate buffer (pH 7) and 100 μl of DMSO was added and each test compound (urease inhibitor sample) dissolved in 100 μl of ethanol was added, followed by standing at 20° C. for 30 minutes and further standing on an ice bath for 10 minutes. […]
(§2) Each sample was inserted into a probe and the enzyme reaction was conducted at the reaction temperature (temperature of the probe) of 20° C. and the measurement was conducted every 20 seconds after 1 to 4 minutes have passed since the beginning of the reaction, while the measurement was conducted every one minute after 4 or more minutes have passed, using a ^13C-NMR apparatus. Consequently, an elimination rate (M/sec) of a signal (165 ppm) of ^13C-urea as the substrate was determined.

jack bean urease = biological target: T1, jack bean urease (Canavalia ensiformis, UniProt P07374); assay: Urease activity inhibition test (13C-urea, 13C-NMR), jack bean urease; assay type: biochemical
T1 construct: purchased
Description: as §1, with “sample. […]” for “sample.”
as §2, with “determined. […]” for “determined.”
Using the respective compounds obtained in Reference Examples 2 to 5 as the test compound, the same test (using the jack bean urease) was repeated and IC50 of each test compounds was determined, thus calculating a relative urease inhibitory activity value relative to a standard (1) for the same value of BIT. […]

[2] = system: Helicobacter pylori ATCC 43504; assay: Anti-Helicobacter pylori activity test (dilution method); assay type: cell-based; details: H. pylori ATCC 43504, 3 days culture, OD660nm; compared with metronidazole (MN), FIG. 3
Description: An anti-Helicobacter pylori activity test of the compound as an active ingredient of the present invention was conducted in the following procedure using a dilution method. Helicobacter pylori ATCC 43504 strains were innoculated in a medium in petri dish (Brucella agar (BECTON […]), containing 7% FBS) and then cultured in a mixed carbonic acid gas-nitrogen gas culture medium (10% CO2, 5% O2, 85% N2, 37° C.) for 2 days. The strains were recovered, cultured similarly in a liquid medium using a Brucella broth (BECTON […]) for one day and then diluted with the same medium to control […] to 0.1. The test compound was dissolved in 50% ethanol-saline to prepare a 1 mg/ml solution and the solution was 1- to 2048-fold diluted by 12 steps with the same medium to prepare dilution series. In each well of cell culture plate (20 μl/well), each step wisely diluted solution (20 μl) of the test compound was charged and a Brucella medium (containing 7% FBS) (160 μl) was added, and then a pylori strain solution (20 μl) was finally added.

Sequence of Helicobacter pylori urease (P14916 whole entry): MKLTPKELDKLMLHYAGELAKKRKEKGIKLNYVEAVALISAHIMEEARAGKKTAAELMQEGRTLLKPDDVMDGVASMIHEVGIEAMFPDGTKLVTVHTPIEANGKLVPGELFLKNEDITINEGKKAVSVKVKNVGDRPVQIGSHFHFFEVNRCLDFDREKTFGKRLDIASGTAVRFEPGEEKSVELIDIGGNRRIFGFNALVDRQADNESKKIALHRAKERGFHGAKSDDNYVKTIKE
Sequence of Helicobacter pylori urease (P69996 whole entry): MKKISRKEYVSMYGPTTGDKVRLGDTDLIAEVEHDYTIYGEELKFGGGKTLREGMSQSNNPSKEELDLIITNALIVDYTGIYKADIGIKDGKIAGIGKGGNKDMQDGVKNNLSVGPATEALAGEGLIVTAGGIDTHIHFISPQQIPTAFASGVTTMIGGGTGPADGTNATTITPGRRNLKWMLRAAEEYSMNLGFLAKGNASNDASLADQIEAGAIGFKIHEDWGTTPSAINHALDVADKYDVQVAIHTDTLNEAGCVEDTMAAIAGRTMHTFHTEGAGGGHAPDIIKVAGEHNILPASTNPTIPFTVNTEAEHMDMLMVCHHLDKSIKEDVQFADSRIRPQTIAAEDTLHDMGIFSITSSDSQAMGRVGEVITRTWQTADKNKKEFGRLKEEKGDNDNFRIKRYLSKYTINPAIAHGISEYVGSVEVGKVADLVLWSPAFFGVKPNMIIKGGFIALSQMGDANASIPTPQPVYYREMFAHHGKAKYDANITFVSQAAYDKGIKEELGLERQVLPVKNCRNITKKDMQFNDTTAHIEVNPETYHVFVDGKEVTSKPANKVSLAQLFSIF
T1 sequence (P07374 whole entry, looked up): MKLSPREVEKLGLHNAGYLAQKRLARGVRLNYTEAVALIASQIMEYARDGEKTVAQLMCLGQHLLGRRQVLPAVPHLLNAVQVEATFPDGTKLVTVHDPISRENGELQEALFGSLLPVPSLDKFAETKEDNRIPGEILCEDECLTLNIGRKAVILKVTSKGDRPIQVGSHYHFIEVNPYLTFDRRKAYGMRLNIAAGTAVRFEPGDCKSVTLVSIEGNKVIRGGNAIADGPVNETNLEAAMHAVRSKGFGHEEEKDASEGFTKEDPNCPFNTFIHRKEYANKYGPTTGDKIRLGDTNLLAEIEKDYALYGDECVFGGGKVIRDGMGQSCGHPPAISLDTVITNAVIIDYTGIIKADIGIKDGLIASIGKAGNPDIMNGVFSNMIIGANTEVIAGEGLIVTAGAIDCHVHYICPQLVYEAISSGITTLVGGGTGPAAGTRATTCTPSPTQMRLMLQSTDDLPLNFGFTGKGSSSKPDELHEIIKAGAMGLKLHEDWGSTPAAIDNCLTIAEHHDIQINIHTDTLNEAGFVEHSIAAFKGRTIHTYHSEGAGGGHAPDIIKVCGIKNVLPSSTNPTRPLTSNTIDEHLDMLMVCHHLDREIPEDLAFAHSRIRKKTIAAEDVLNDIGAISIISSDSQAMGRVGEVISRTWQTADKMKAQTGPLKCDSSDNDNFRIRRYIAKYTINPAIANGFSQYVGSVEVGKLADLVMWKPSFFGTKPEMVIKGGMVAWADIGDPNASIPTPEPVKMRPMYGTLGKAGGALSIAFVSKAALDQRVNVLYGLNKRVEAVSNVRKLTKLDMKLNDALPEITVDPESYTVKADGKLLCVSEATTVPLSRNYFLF

For `O=c1[nH]sc2ccccc12` [BIT, 1,2-benzoisothiazol-3 (2H)-one], the IC50 [1] was 55 µM, the IC50 (jack bean urease) was 132 µM and the “anti-Helicobacter pylori activity (eradication rate)” value [2] was “stronger than that of MN”.
